Source: ChEMBL document CHEMBL1949526, “Cyclic hydroxyamidines as amide isosteres: discovery of oxadiazolines and oxadiazines as potent and highly efficacious γ-secretase modulators in vivo” (J Med Chem, 2012)

Key:
[1] = biological target: Gamma-secretase; assay: Modulation of gamma-secretase-mediated cleavage of human APP Swedish and London mutation expressed in HEK293 cells assessed as inhibition of amyloid beta42 production after 5 hrs by sandwich immunoassay; format: cell-based
[2] = biological target: Gamma-secretase; assay: Modulation of gamma-secretase-mediated cleavage of human APP Swedish and London mutation expressed in HEK293 cells assessed as reduction of total amyloid beta level after 5 hrs by sandwich immunoassay; format: cell-based
[3] = Dissociation constant, pKa of the compound; format: physicochemical
[4] = biological target: Voltage-gated inwardly rectifying potassium channel KCNH2 (Homo sapiens, UniProt Q12809); assay: Inhibition of human ERG by cell based voltage clamp assay
Sequence of Voltage-gated inwardly rectifying potassium channel KCNH2 (Q12809 whole entry): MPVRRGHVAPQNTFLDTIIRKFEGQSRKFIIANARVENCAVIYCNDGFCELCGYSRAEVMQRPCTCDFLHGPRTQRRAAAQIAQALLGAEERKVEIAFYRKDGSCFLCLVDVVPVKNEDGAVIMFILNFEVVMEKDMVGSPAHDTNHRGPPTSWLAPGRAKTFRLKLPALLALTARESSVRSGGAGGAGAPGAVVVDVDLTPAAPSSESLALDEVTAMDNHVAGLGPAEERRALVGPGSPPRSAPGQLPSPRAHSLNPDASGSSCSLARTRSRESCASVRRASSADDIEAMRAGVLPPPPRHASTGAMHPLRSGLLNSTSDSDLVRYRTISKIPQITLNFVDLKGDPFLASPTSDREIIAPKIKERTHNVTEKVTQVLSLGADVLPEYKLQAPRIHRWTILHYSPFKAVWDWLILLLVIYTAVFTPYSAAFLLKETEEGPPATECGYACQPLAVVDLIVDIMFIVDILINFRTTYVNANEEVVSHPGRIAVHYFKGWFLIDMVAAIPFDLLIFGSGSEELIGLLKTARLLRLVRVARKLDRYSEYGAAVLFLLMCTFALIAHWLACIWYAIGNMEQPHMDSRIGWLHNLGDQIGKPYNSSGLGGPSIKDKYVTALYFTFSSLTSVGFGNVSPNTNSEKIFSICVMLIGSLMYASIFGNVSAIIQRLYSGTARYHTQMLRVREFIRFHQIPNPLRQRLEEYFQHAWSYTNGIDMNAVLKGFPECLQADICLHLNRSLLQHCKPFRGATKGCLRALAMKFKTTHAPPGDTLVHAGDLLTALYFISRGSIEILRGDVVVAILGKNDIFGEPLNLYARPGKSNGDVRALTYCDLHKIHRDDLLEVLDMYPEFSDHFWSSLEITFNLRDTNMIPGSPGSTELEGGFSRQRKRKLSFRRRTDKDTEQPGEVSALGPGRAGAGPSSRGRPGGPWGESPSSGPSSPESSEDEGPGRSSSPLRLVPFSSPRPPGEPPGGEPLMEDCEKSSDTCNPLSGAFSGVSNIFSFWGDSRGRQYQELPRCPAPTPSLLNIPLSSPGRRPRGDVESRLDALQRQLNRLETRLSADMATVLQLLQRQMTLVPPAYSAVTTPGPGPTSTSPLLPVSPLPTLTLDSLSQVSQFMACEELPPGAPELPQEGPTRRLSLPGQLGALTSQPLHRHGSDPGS

[5] = biological target: Gamma-secretase; assay: Modulation of gamma-secretase-mediated cleavage of human APP Swedish and London mutation expressed in HEK293 cells assessed as inhibition of amyloid beta40 production after 5 hrs by sandwich immunoassay; format: cell-based
[6] = biological target: Gamma-secretase; assay: Modulation of gamma-secretase-mediated notch signaling in HEK293 cells transfected with human APP Swedish and London mutation and Notch1 with truncated extracellular EGF repeat domain assessed as production of notch intracellular domain by MSD-based sandwich immunoassay; format: cell-based
[7] = Permeability from apical to basolateral side of human Caco2 cells; format: ADME, cell-based; details: Caco-2, read-out: permeability
[8] = Efflux ratio of permeability from basolateral to apical side over apical to basolateral side in human Caco2 cells; format: ADME, cell-based; details: Caco-2
[9] = AUC in rat at 10 mg/kg, po; format: ADME, organism-based, Plasma; parameters: dose 10 mg/kg, route oral; details: plasma
[10] = Cmax in rat at 10 mg/kg, po; format: ADME, organism-based; parameters: dose 10 mg/kg, route oral; details: in vivo
[11] = Oral bioavailability in rat at 10 mg/kg; format: ADME, organism-based; details: in vivo
[12] = Half life in rat at 3 mg/kg, iv; format: ADME, organism-based; parameters: dose 3 mg/kg, route intravenous; details: in vivo
[13] = Volume of distribution at steady state in rat at 3 mg/kg, iv; format: ADME, organism-based; parameters: dose 3 mg/kg, route intravenous; details: in vivo, read-out: Vdss
[14] = Clearance in rat at 3 mg/kg, iv; format: ADME, organism-based; parameters: dose 3 mg/kg, route intravenous; details: in vivo
[15] = AUC in dog at 10 mg/kg, po; format: ADME, organism-based, Canis lupus familiaris, Plasma; parameters: dose 10 mg/kg, route oral; details: plasma
[16] = Cmax in dog at 10 mg/kg, po; format: ADME, organism-based, Canis lupus familiaris; parameters: dose 10 mg/kg, route oral; details: in vivo
[17] = Oral bioavailability in dog at 10 mg/kg; format: ADME, organism-based, Canis lupus familiaris; details: in vivo
[18] = Half life in dog at 3 mg/kg, iv; format: ADME, organism-based, Canis lupus familiaris; parameters: dose 3 mg/kg, route intravenous; details: in vivo
[19] = Volume of distribution at steady state in dog at 3 mg/kg, iv; format: ADME, organism-based, Canis lupus familiaris; parameters: dose 3 mg/kg, route intravenous; details: in vivo, read-out: Vdss
[20] = Clearance in dog at 3 mg/kg, iv; format: ADME, organism-based, Canis lupus familiaris; parameters: dose 3 mg/kg, route intravenous; details: in vivo
[21] = AUC in monkey at 10 mg/kg, po; format: ADME, organism-based, Macaca mulatta; parameters: dose 10 mg/kg, route oral; details: rhesus monkey, plasma
[22] = Cmax in monkey at 10 mg/kg, po; format: ADME, organism-based, Macaca mulatta; parameters: dose 10 mg/kg, route oral; details: rhesus monkey, in vivo
[23] = Oral bioavailability in monkey at 10 mg/kg; format: ADME, organism-based, Macaca mulatta; details: rhesus monkey, in vivo
[24] = Half life in monkey at 3 mg/kg, iv; format: ADME, organism-based, Macaca mulatta; parameters: dose 3 mg/kg, route intravenous; details: rhesus monkey, in vivo
[25] = Volume of distribution at steady state in monkey at 3 mg/kg, iv; format: ADME, organism-based, Macaca mulatta; parameters: dose 3 mg/kg, route intravenous; details: rhesus monkey, in vivo, read-out: Vdss
[26] = Clearance in monkey at 3 mg/kg, iv; format: ADME, organism-based, Macaca mulatta; parameters: dose 3 mg/kg, route intravenous; details: rhesus monkey, in vivo
[27] = organism: Canis familiaris; assay: Cardiotoxicity in dog assessed as effect on electrocardiographic QTc interval at compound concentration required for pharmacological effect; format: toxicity, organism-based, Canis lupus familiaris; details: in vivo
[28] = organism: Rattus norvegicus; assay: Toxicity in rat assessed as production of goblet cell meta/hyperplasia in ileum at highest tolerable dose; format: organism-based; details: in vivo
[29] = organism: Rattus norvegicus; assay: Toxicity in rat assessed as decrease in thymus size at highest tolerable dose; format: organism-based; details: in vivo
[30] = organism: Rattus norvegicus; assay: Toxicity in rat assessed as decrease in body weight at highest tolerable dose; format: organism-based; details: in vivo
[31] = organism: Rattus norvegicus; assay: Toxicity in rat assessed as effect on HES-1 expression in jejunum at highest tolerable dose; format: organism-based; details: in vivo
[32] = organism: Rattus norvegicus; assay: Toxicity in rat assessed as effect on adipsin expression in jejunum at highest tolerable dose; format: organism-based; details: in vivo
[33] = system: Rattus norvegicus; assay: Antialzheimer activity in CD rat assessed as reduction in amyloid beta42 level in CSF at 3 mg/kg, po after 3 hrs by alphaLISA analysis; format: functional; parameters: scale not given: the % may be the effect or the level left
[34] = system: Rattus norvegicus; assay: Antialzheimer activity in CD rat assessed as reduction in amyloid beta40 level in CSF at 3 mg/kg, po after 3 hrs by alphaLISA analysis; format: functional; parameters: scale not given: the % may be the effect or the level left
[35] = system: Rattus norvegicus; assay: Antialzheimer activity in CD rat assessed as reduction in total amyloid beta level in CSF at 3 mg/kg, po after 3 hrs by alphaLISA analysis; format: functional; parameters: scale not given: the % may be the effect or the level left
[36] = system: Rattus norvegicus; assay: Antialzheimer activity in CD rat assessed as reduction in amyloid beta42 level in cortex at 3 mg/kg, po after 3 hrs by alphaLISA analysis; format: functional; parameters: scale not given: the % may be the effect or the level left
[37] = system: Rattus norvegicus; assay: Antialzheimer activity in CD rat assessed as reduction in amyloid beta40 level in cortex at 3 mg/kg, po after 3 hrs by alphaLISA analysis; format: functional; parameters: scale not given: the % may be the effect or the level left
[38] = system: Rattus norvegicus; assay: Antialzheimer activity in CD rat assessed as reduction in amyloid beta42 level in plasma at 3 mg/kg, po after 3 hrs by alphaLISA analysis; format: functional; parameters: scale not given: the % may be the effect or the level left
[39] = system: Rattus norvegicus; assay: Antialzheimer activity in CD rat assessed as reduction in amyloid beta40 level in plasma at 3 mg/kg, po after 3 hrs by alphaLISA analysis; format: functional; parameters: scale not given: the % may be the effect or the level left
[40] = system: Rattus norvegicus; assay: Antialzheimer activity in CD rat assessed as reduction in total amyloid beta level in plasma at 3 mg/kg, po after 3 hrs by alphaLISA analysis; format: functional; parameters: scale not given: the % may be the effect or the level left
[41] = system: Cynomolgus monkey; assay: Antialzheimer activity in cynomolgus monkey assessed as reduction in amyloid beta42 level in cortex at 30 mg/kg, po after 4 hrs by alphaLISA analysis; format: functional, Macaca fascicularis; parameters: scale not given: the % may be the effect or the level left
[42] = system: Cynomolgus monkey; assay: Antialzheimer activity in cynomolgus monkey assessed as reduction in amyloid beta42 level in CSF at 30 mg/kg, po after 4 hrs by alphaLISA analysis; format: functional, Macaca fascicularis; parameters: scale not given: the % may be the effect or the level left
[43] = Plasma concentration in cynomolgus monkey at 30 mg/kg, po after 4 hrs; format: ADME, organism-based, Macaca fascicularis; parameters: dose 30 mg/kg, route oral
[44] = Ratio of drug level in brain to plasma in cynomolgus monkey at 30 mg/kg, po after 4 hrs; format: ADME, organism-based, Macaca fascicularis; parameters: dose 30 mg/kg, route oral; details: read-out: BPR
[45] = Plasma concentration in CD rat at 3 mg/kg, po after 3 hrs; format: ADME, organism-based; parameters: dose 3 mg/kg, route oral
[46] = Ratio of drug level in brain to plasma in CD rat at 3 mg/kg, po after 3 hrs; format: ADME, organism-based; parameters: dose 3 mg/kg, route oral; details: read-out: BPR

Structure (SMILES): COc1cc(/C=C2\CCCN3C2=NOC[C@@H]3c2cc(F)c(F)c(F)c2)ccc1-n1cnc(C)c1
- IC50 [1]: 33 nM
- IC50 [2]: > 20000 nM
- pKa [3]: 2.7
- IC50 [4]: 1000 nM
- IC50 [5]: 123 nM
- IC50 [6]: > 50000 nM
- Papp A→B [7]: 24.6 ×10⁻⁶ cm/s
- efflux ratio [8]: 2
- AUC [9]: 265 µM·h
- Cmax [10]: 19.8 µM
- bioavailability [11]: 100%
- half-life [12]: 210 min
- Vd [13]: 0.4 L/kg
- clearance [14]: 1.4 mL/min/kg
- AUC [15]: 27 µM·h
- Cmax [16]: 7.9 µM
- bioavailability [17]: 69%
- half-life [18]: 48 min
- Vd [19]: 0.6 L/kg
- clearance [20]: 9 mL/min/kg
- AUC [21]: 11 µM·h
- Cmax [22]: 4.9 µM
- bioavailability [23]: 34%
- half-life [24]: 54 min
- Vd [25]: 0.8 L/kg
- clearance [26]: 11 mL/min/kg
- Activity [27]: Non-toxic
- Activity [28]: Non-toxic
- Activity [29]: Non-toxic
- Activity [30]: Non-toxic
- Activity [31]: Non-toxic
- Activity [32]: Non-toxic
- Activity [33]: 65%
- Activity [34]: 74%
- Activity [35]: 88%
- Activity [36]: 63%
- Activity [37]: 84%
- Activity [38]: 32%
- Activity [39]: 50%
- Activity [40]: 86%
- Activity [41]: 44%
- Activity [42]: 70%
- concentration at 4 h [43]: 6 µM
- Kp at 4 h [44]: 1.4
- concentration at 3 h [45]: 3 µM
- Kp at 3 h [46]: 0.49
